This is an account of results in ChEMBL document CHEMBL5113481, “Design, synthesis and biological evaluation of quinoline-2-carbonitrile-based hydroxamic acids as dual tubulin polymerization and histone deacetylases inhibitors” (Eur J Med Chem, 2022).

Each structure is given as a SMILES string. Values after ≈ are worked out from the molar mass of the structure shown. Active and inactive are the calls of the source. The calls are words filed in the database; no cut-off is given here. Some results are limits rather than exact numbers.

In the first series the test system is HCT-116. The experiment in a line: Antiproliferative activity against human HCT-116 cells after 72 hrs by CellTiter Glo assay. It is filed as functional, cell-based. As to conditions: Homo sapiens, HCT-116; time 72 hrs.
Molecule `COc1ccc(N(C)c2cc(C#N)nc3ccccc23)cc1/C=C/C(=O)NOC1CCCCO1` (centres undefined) showed a GI50 of 4.91 nM.

Molecule `COc1ccc(N(C)c2cc(C)nc3ccccc23)cc1/C=C/C(=O)NO` registered a GI50 of 6.3 nM.

Consider `COc1ccc(N(C)c2nc(C)nc3ccccc23)cc1/C=C/C(=O)NO`, for which the 50% growth inhibitory concentration (GI50) stood at 0.6 nM.

In turn, `C=C(c1ccc(OC)c(/C=C/C(=O)NO)c1)c1cc(C)nc2ccccc12` registered a concentration for 50% growth inhibition (GI50) of 10.1 nM.

The same series, now with this note: time 72 hrs.
Take `CC(/C=C/C(=O)NO)=C\[C@@H](C)C(=O)c1ccc(N(C)C)cc1` [TRICHOSTATIN]: the GI50 was 35 nM.

In the next series the test system is HT-29. The series is described as follows: Cell cycle arrest in human HT-29 cells assessed as accumulation of cells in G2/M phase at 5 nM measured after 24 hrs by PI staining based flow cytometry method. It is filed as functional.
Conditions: not given
For `COc1ccc(N(C)c2nc(C)nc3ccccc23)cc1/C=C/C(=O)NO`, the Activity is given as >95%.

The subject of the next series is HT-29. The experiment in a line: Induction of mitochondrial dysfunction in human HT-29 cells at 2 nM measured after 48 hrs by JC-1 staining based flow cytometry. In kind it is functional, cell-based.
Conditions: not given
For `COc1ccc(N(C)c2nc(C)nc3ccccc23)cc1/C=C/C(=O)NO`, the outcome was Active.

A further series concerns K562. The series is described as follows: Antiproliferative activity against human K562 cells after 72 hrs by CellTiter Glo assay. In kind it is functional, cell-based. The settings on record: K562, 72 h.
Turning to `CC(/C=C/C(=O)NO)=C\[C@@H](C)C(=O)c1ccc(N(C)C)cc1` [TRICHOSTATIN], 260 nM corresponded to half-maximal inhibition (IC50).

With `COc1ccc(N(C)c2nc(C)nc3ccccc23)cc1/C=C/C(=O)NO`, half-maximal inhibition (IC50) required 0.38 nM.

The next series concerns the target T1, Histone deacetylase 8 (Homo sapiens, UniProt Q9BY41).
T1 sequence (Q9BY41 whole entry): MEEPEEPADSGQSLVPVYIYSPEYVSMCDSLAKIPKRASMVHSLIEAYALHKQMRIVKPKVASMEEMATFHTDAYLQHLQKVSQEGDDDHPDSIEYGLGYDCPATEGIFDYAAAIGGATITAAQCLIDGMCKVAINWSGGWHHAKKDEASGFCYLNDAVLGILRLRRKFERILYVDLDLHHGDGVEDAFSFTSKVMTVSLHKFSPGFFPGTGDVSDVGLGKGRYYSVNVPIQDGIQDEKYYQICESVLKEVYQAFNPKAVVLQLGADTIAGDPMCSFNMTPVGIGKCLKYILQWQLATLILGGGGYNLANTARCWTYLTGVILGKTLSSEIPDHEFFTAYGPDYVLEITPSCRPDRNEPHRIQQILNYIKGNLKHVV
The series is described as follows: Inhibition of HDAC8 (unknown origin) measured by fluorometry assay.
Conditions: not given
As for `COc1ccc(N(C)c2nc(C)nc3ccccc23)cc1/C=C/C(=O)NO`, the 50% inhibitory concentration (IC50) came to 280 nM.

The subject of the next series is HT-29. The series is described as follows: Antiproliferative activity against human HT-29 cells after 72 hrs by CellTiter Glo assay. It is filed as functional, cell-based. As to conditions: HT-29, 72 h.
As for `CC(/C=C/C(=O)NO)=C\[C@@H](C)C(=O)c1ccc(N(C)C)cc1` [TRICHOSTATIN], the IC50 was 55 nM.

`COc1ccc(N(C)c2nc(C)nc3ccccc23)cc1/C=C/C(=O)NO` had a half-maximal inhibitory concentration (IC50) of 0.66 nM.

For the next series, the system named is SK-OV-3. The experiment in a line: Antiproliferative activity against human SK-OV-3 cells after 72 hrs by CellTiter Glo assay. It is filed as functional, cell-based. The settings on record: SK-OV-3, 72 h.
On to `CC(/C=C/C(=O)NO)=C\[C@@H](C)C(=O)c1ccc(N(C)C)cc1` [TRICHOSTATIN], for which the 50% inhibitory concentration (IC50) is 100 nM.

`COc1ccc(N(C)c2nc(C)nc3ccccc23)cc1/C=C/C(=O)NO` showed an IC50 of 0.3 nM.

System in another series: not listed separately
The experiment in a line: Metabolic stability in rat liver microsomes assessed as half-life measured upto 6 hrs in presence of NADPH generating system by HPLC-MS/MS analysis. It is filed as ADME, Microsome.
Conditions: not given
As to `COc1ccc(N(C)c2nc(C)nc3ccccc23)cc1/C=C/C(=O)NO`, the half-life is 212 min.

A further series concerns the target T2, Histone deacetylase 11 (Homo sapiens, UniProt Q96DB2).
T2 sequence (Q96DB2 whole entry): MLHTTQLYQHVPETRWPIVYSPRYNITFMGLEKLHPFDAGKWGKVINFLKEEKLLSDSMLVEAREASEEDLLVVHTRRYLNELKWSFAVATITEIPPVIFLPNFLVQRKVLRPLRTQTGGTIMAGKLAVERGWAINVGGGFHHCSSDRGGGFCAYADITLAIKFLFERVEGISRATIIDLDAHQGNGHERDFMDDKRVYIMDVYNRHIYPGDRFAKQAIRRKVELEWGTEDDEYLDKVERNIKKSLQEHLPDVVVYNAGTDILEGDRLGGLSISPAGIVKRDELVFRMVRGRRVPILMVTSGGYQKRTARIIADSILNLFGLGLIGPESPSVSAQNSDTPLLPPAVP
The experiment in a line: Inhibition of HDAC11 (unknown origin) measured by fluorometry assay.
Conditions: not given
For `COc1ccc(N(C)c2nc(C)nc3ccccc23)cc1/C=C/C(=O)NO`, half-maximal inhibition (IC50) required 3.2 µM.

The next series relates to A549. The experiment in a line: Antiproliferative activity against human A549 cells after 72 hrs by CellTiter Glo assay. The settings on record: A549, 72 h. In kind it is functional, cell-based.
As for `CC(/C=C/C(=O)NO)=C\[C@@H](C)C(=O)c1ccc(N(C)C)cc1` [TRICHOSTATIN], half-maximal inhibition (IC50) was put at 80 nM.

In turn, `COc1ccc(N(C)c2nc(C)nc3ccccc23)cc1/C=C/C(=O)NO` gave an IC50 of 0.51 nM.

The next series deals with MIA PaCa-2. The series is described as follows: Antiproliferative activity against human MIA PaCa-2 cells after 72 hrs by CellTiter Glo assay. It is filed as functional, cell-based. As to conditions: MIA PaCa-2, 72 h.
For `CC(/C=C/C(=O)NO)=C\[C@@H](C)C(=O)c1ccc(N(C)C)cc1` [TRICHOSTATIN], the half-maximal inhibitory concentration (IC50) was 200 nM.

As for `COc1ccc(N(C)c2nc(C)nc3ccccc23)cc1/C=C/C(=O)NO`, the IC50 was found to be 1.1 nM.

For the next series, the system named is K562. The experiment in a line: Antiproliferative activity against imatinib-resistant human K562 cells over expressing MDR1 after 72 hrs by CellTiter Glo assay. In kind it is functional, cell-based. The settings on record: K562, 72 h.
`CC(/C=C/C(=O)NO)=C\[C@@H](C)C(=O)c1ccc(N(C)C)cc1` [TRICHOSTATIN]: it took 90 nM to reach half-maximal inhibition (IC50).

In turn, `COc1ccc(N(C)c2nc(C)nc3ccccc23)cc1/C=C/C(=O)NO` displayed a half-maximal inhibitory concentration (IC50) of 1.63 nM.

The test system of another series is MDA-MB-231. The experiment in a line: Antiproliferative activity against human MDA-MB-231 cells after 72 hrs by CellTiter Glo assay. It is filed as functional, cell-based. The settings on record: MDA-MB-231, 72 h.
In turn, `CC(/C=C/C(=O)NO)=C\[C@@H](C)C(=O)c1ccc(N(C)C)cc1` [TRICHOSTATIN] gave an IC50 of 91 nM.

The molecule `COc1ccc(N(C)c2nc(C)nc3ccccc23)cc1/C=C/C(=O)NO` registered an IC50 of 0.55 nM.

System in a further series: not listed separately
The series is described as follows: Solubility of compound in water. In kind it is physicochemical.
Conditions: not given
In turn, `COc1ccc(N(C)c2nc(C)nc3ccccc23)cc1/C=C/C(=O)NO` registered a solubility of 65 µg/mL (≈ 178 µM).

System in another series: not listed separately
The series is described as follows: Metabolic stability in rat liver microsomes assessed as intrinsic clearance per mg protein measured upto 6 hrs in presence of NADPH generating system by HPLC-MS/MS analysis. It is filed as ADME, Microsome. As to conditions: read-out: CLH.
`COc1ccc(N(C)c2nc(C)nc3ccccc23)cc1/C=C/C(=O)NO`: the microsomal CLint was found to be 3.27 µL/min/mg.

The subject of the next series is NCI-N87. The experiment in a line: Antiproliferative activity against human NCI-N87 cells after 72 hrs by CellTiter Glo assay. It is filed as functional, cell-based. As to conditions: NCI-N87, 72 h.
`CC(/C=C/C(=O)NO)=C\[C@@H](C)C(=O)c1ccc(N(C)C)cc1` [TRICHOSTATIN] gave an IC50 of 58 nM.

`COc1ccc(N(C)c2nc(C)nc3ccccc23)cc1/C=C/C(=O)NO` yielded an IC50 of 0.17 nM.

A further series deals with T3, Protein deacetylase HDAC6 (Homo sapiens, UniProt Q9UBN7).
T3 sequence (Q9UBN7 whole entry): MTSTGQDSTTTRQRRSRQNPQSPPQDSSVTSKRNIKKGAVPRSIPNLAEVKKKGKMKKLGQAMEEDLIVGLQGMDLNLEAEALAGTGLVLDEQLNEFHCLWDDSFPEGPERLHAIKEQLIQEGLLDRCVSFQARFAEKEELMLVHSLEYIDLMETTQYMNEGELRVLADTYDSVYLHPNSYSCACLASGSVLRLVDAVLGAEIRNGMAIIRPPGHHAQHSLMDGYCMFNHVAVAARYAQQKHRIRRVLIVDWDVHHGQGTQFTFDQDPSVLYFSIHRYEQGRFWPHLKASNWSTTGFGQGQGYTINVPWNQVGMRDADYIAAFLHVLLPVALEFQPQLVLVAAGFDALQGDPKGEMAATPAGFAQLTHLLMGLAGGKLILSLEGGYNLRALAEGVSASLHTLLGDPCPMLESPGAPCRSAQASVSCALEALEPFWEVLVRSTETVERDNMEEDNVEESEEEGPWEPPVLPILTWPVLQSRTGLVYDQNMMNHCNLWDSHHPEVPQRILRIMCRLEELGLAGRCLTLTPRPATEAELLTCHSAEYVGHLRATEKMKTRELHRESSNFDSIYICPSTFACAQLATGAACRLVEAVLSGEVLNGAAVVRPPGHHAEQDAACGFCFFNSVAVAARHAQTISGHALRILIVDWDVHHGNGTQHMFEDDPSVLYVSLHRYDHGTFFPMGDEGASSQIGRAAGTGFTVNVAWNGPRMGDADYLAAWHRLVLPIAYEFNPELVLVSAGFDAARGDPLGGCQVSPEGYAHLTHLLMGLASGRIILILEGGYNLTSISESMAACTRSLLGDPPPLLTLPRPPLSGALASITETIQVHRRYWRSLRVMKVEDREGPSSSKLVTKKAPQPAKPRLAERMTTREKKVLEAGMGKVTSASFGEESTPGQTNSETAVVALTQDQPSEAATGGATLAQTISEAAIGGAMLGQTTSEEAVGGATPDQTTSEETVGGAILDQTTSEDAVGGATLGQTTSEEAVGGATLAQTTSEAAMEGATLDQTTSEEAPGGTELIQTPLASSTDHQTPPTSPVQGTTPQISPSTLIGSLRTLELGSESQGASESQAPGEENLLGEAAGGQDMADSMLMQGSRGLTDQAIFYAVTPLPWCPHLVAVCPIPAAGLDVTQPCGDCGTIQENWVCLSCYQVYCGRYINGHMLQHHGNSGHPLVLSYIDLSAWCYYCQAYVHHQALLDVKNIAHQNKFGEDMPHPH
The series is described as follows: Inhibition of HDAC6 (unknown origin) measured by fluorometry assay.
Conditions: not given
For `COc1ccc(N(C)c2nc(C)nc3ccccc23)cc1/C=C/C(=O)NO`, the 50% inhibitory concentration (IC50) stood at 2000 nM.

System in a further series: not listed separately
The experiment in a line: Metabolic stability in human liver microsomes assessed as half-life measured upto 6 hrs in presence of NADPH generating system by HPLC-MS/MS analysis. It is filed as ADME, Microsome.
Conditions: not given
Regarding `COc1ccc(N(C)c2nc(C)nc3ccccc23)cc1/C=C/C(=O)NO`, the half-life was 540 min.

For the next series, the system named is HT-29. The experiment in a line: Cell cycle arrest in human HT-29 cells assessed as accumulation of cells in G2/M phase at 0.1 to 5 nM measured after 24 hrs by PI staining based flow cytometry method. In kind it is functional. The settings on record: dose 0.1-5 nM, DDE = dose-dependent effect.
In the case of `COc1ccc(N(C)c2nc(C)nc3ccccc23)cc1/C=C/C(=O)NO`, the Activity entry was “Dde”.

System in another series: not listed separately
The experiment in a line: Metabolic stability in human liver microsomes assessed as intrinsic clearance per mg protein measured upto 6 hrs in presence of NADPH generating system by HPLC-MS/MS analysis. It is filed as ADME, Microsome. As to conditions: read-out: CLH.
With `COc1ccc(N(C)c2nc(C)nc3ccccc23)cc1/C=C/C(=O)NO`, the microsomal CLint stood at 1.28 µL/min/mg.

In a further series the test system is MCF7. The series is described as follows: Antiproliferative activity against human MCF7 cells after 72 hrs by CellTiter Glo assay. In kind it is functional, cell-based. As to conditions: MCF7, 72 h.
Molecule `CC(/C=C/C(=O)NO)=C\[C@@H](C)C(=O)c1ccc(N(C)C)cc1` [TRICHOSTATIN] had a half-maximal inhibitory concentration (IC50) of 54 nM.

For the molecule `COc1ccc(N(C)c2nc(C)nc3ccccc23)cc1/C=C/C(=O)NO`, the IC50 came to 0.8 nM.
